Here are results for one compound from patent US20260376293A1, “METHODS FOR STUDYING GPR158 PHARMACOLOGY AND IDENTIFICATION OF ITS LIGANDS” (UNIVERSITY OF FLORIDA RESEARCH FOUNDATION, INCORPORATED, priority 2022, published 2026).

Assay [1] concerns the target T1, GPR158 (Homo sapiens, UniProt Q5T848).
T1 construct: GPR158 AC2 (1-775) was expressed and purified; Flag; made in house; host or cells: HEK293 GnTI- (BacMam virus)
T1 sequence (Q5T848 24-775): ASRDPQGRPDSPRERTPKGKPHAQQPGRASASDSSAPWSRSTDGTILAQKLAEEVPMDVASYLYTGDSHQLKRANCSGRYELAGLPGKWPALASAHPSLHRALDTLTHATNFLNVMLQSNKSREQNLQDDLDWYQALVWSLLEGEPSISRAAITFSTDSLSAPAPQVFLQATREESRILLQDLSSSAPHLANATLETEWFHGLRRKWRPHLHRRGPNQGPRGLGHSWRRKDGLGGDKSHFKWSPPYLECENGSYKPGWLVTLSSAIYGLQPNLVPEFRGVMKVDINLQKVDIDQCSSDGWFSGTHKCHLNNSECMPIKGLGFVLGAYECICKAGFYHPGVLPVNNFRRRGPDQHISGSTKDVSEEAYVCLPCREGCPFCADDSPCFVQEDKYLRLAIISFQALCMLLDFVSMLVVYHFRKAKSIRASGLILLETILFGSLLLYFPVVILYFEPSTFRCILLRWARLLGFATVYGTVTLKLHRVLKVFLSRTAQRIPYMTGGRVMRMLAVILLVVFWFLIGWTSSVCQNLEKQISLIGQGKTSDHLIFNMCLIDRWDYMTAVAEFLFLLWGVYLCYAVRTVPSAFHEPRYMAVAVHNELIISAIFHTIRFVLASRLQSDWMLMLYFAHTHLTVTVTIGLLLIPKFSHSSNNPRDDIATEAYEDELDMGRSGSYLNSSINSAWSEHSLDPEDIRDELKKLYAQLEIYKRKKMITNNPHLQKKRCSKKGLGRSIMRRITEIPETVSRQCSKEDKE
The assay can be described thus: Isothermal Titration calorimetry (ITC) with purified GPR158. Format: binding. To be noted: purified GPR158-AC2, 23 °C. The procedure:
FIGS. 9A-9H. Direct interaction of glycine with GPR158 A) Schematics of assay design for detecting glycine binding to GPR158 by flow cytometry. Cells transfected with GPR158 are incubated with FITC-glycine and fluorescence labeling of cells is detected by flow cytometry. B) Representative flow cytometry histogram showing distribution of cellular populations after sorting. C) Quantification of FITC-glycine binding detected in flow cytometry binding experiments. The median of fluorescence (MFI) is quantified and plotted. Error bars are s.e.m. values, N=3, **p<0.01, ****p<0.0001, two-way ANOVA. D) Schematics of the radioligand binding assay. E) Quantification of ^3H-glycine binding to membrane expressing GPR158. Count Per minute (CPM) are measured and plotted. Data shown mean of 4 independent experiments error bars are s.e.m. values, n=4. […] Data shown mean of 4 independent experiments error bars are s.e.m. values, n=4. G) Schematics of the assay design detecting glycine binding to GPR158 by Isothermal Titration calorimetry (ITC) with purified protein. H) Representative ITC binding profile showing glycine binding to GPR158. Control (thick line), GPR158 (thin line) I) Quantification of binding determined by fitting the integrated isotherm to an independent binding model.
FIGS. 10A-10D. Binding of Glycine to GPR158 in ITC experiments. […]

For assay [2], the system named is GlyRs. The note with it: cited from earlier work.

Where two headings read alike, the source gives them in different places.

As usually defined, the Kd is the free concentration of one partner at which half of the binding sites on the other are occupied at equilibrium, for simple one-to-one binding. Take `NCC(=O)O` [glycine]: the equilibrium dissociation constant (Kd) in assay [1] (mean of 4 experimental runs, independent binding model, read-out: KD (ITC, mean)) was 7.76 ± 3.66 µM; in assay [1] (range across experiments, read-out: binding constants (KD) across experiments), 2 to 16 µM. Besides, the “affinity of GlyRs for glycine relative to mGlyR” value in assay [2] was “an order of magnitude lower affinity”.
